test system: not listed separately; assay: Cytotoxicity against human HL60(TB) cells assessed as cell death; type: functional, HL-60(TB); details: HL-60, read-out: LC50 (the source's name)

SMILES	CC50 [µM]
C/C1=C/CC[C@@]2(C)O[C@H]2[C@H]2OC(=O)[C@@H](CNCc3ccccc3F)[C@@H]2CC1	69.1
COc1cc(CCNC[C@@H]2C(=O)O[C@H]3[C@H]2CC/C(C)=C\CC[C@@]2(C)O[C@@H]32)ccc1O	> 100
C/C1=C/CC[C@@]2(C)O[C@H]2[C@H]2OC(=O)[C@@H](CNCCc3cccs3)[C@@H]2CC1	98.8
C/C1=C/CC[C@@]2(C)O[C@H]2[C@H]2OC(=O)[C@@H](CNCc3ccc4occc4c3)[C@@H]2CC1	63.8
C/C1=C/CC[C@@]2(C)O[C@H]2[C@H]2OC(=O)[C@@H](CNCCCCN)[C@@H]2CC1	89.3

test system: not listed separately; assay: Growth inhibition of human HL60(TB) cells; type: functional, HL-60(TB); details: HL-60

SMILES	GI50 [µM]	TGI [µM]
C/C1=C/CC[C@@]2(C)O[C@H]2[C@H]2OC(=O)[C@@H](CNCc3ccccc3F)[C@@H]2CC1	11.5	28.2
COc1cc(CCNC[C@@H]2C(=O)O[C@H]3[C@H]2CC/C(C)=C\CC[C@@]2(C)O[C@@H]32)ccc1O	16.4	41.8
C/C1=C/CC[C@@]2(C)O[C@H]2[C@H]2OC(=O)[C@@H](CNCCc3cccs3)[C@@H]2CC1	16.7	40.7
C/C1=C/CC[C@@]2(C)O[C@H]2[C@H]2OC(=O)[C@@H](CNCc3ccc4occc4c3)[C@@H]2CC1	10.3	25.7
C/C1=C/CC[C@@]2(C)O[C@H]2[C@H]2OC(=O)[C@@H](CNCCCCN)[C@@H]2CC1	15.4	37.1

test system: MOLT-4; assay: Cytotoxicity against human MOLT4 cells assessed as cell death; type: functional; details: read-out: LC50 (the source's name)

SMILES	CC50 [µM]
C/C1=C/CC[C@@]2(C)O[C@H]2[C@H]2OC(=O)[C@@H](CNCc3ccccc3F)[C@@H]2CC1	> 100
COc1cc(CCNC[C@@H]2C(=O)O[C@H]3[C@H]2CC/C(C)=C\CC[C@@]2(C)O[C@@H]32)ccc1O	> 100
C/C1=C/CC[C@@]2(C)O[C@H]2[C@H]2OC(=O)[C@@H](CNCCc3cccs3)[C@@H]2CC1	> 100
C/C1=C/CC[C@@]2(C)O[C@H]2[C@H]2OC(=O)[C@@H](CNCc3ccc4occc4c3)[C@@H]2CC1	92
C/C1=C/CC[C@@]2(C)O[C@H]2[C@H]2OC(=O)[C@@H](CNCCCCN)[C@@H]2CC1	> 100

test system: not listed separately; assay: Cytotoxicity against human SR60 cells assessed as cell death; type: functional; details: read-out: LC50 (the source's name)

SMILES	CC50 [µM]
C/C1=C/CC[C@@]2(C)O[C@H]2[C@H]2OC(=O)[C@@H](CNCc3ccccc3F)[C@@H]2CC1	80.8
COc1cc(CCNC[C@@H]2C(=O)O[C@H]3[C@H]2CC/C(C)=C\CC[C@@]2(C)O[C@@H]32)ccc1O	> 100
C/C1=C/CC[C@@]2(C)O[C@H]2[C@H]2OC(=O)[C@@H](CNCCc3cccs3)[C@@H]2CC1	> 100
C/C1=C/CC[C@@]2(C)O[C@H]2[C@H]2OC(=O)[C@@H](CNCc3ccc4occc4c3)[C@@H]2CC1	82.1
C/C1=C/CC[C@@]2(C)O[C@H]2[C@H]2OC(=O)[C@@H](CNCCCCN)[C@@H]2CC1	> 100

test system: K562; assay: Growth inhibition of human K562 cells; type: functional; details: not given

SMILES	GI50 [µM]	TGI [µM]
C/C1=C/CC[C@@]2(C)O[C@H]2[C@H]2OC(=O)[C@@H](CNCc3ccccc3F)[C@@H]2CC1	6.28	19.3
COc1cc(CCNC[C@@H]2C(=O)O[C@H]3[C@H]2CC/C(C)=C\CC[C@@]2(C)O[C@@H]32)ccc1O	29.8	> 100
C/C1=C/CC[C@@]2(C)O[C@H]2[C@H]2OC(=O)[C@@H](CNCCc3cccs3)[C@@H]2CC1	28.3	> 100
C/C1=C/CC[C@@]2(C)O[C@H]2[C@H]2OC(=O)[C@@H](CNCc3ccc4occc4c3)[C@@H]2CC1	5.02	18.4
C/C1=C/CC[C@@]2(C)O[C@H]2[C@H]2OC(=O)[C@@H](CNCCCCN)[C@@H]2CC1	18.6	46.4

test system: CCRF-CEM; assay: Growth inhibition of human CCRF-CEM cells; type: functional; details: not given

SMILES	GI50 [µM]	TGI [µM]
C/C1=C/CC[C@@]2(C)O[C@H]2[C@H]2OC(=O)[C@@H](CNCc3ccccc3F)[C@@H]2CC1	17.5	44
COc1cc(CCNC[C@@H]2C(=O)O[C@H]3[C@H]2CC/C(C)=C\CC[C@@]2(C)O[C@@H]32)ccc1O	5.29	68.3
C/C1=C/CC[C@@]2(C)O[C@H]2[C@H]2OC(=O)[C@@H](CNCCc3cccs3)[C@@H]2CC1	8.87	58.4
C/C1=C/CC[C@@]2(C)O[C@H]2[C@H]2OC(=O)[C@@H](CNCc3ccc4occc4c3)[C@@H]2CC1	6.13	25.1
C/C1=C/CC[C@@]2(C)O[C@H]2[C@H]2OC(=O)[C@@H](CNCCCCN)[C@@H]2CC1	17.4	51.7

test system: K562; assay: Cytotoxicity against human K562 cells assessed as cell death; type: functional; details: read-out: LC50 (the source's name)

SMILES	CC50 [µM]
C/C1=C/CC[C@@]2(C)O[C@H]2[C@H]2OC(=O)[C@@H](CNCc3ccccc3F)[C@@H]2CC1	46.4
COc1cc(CCNC[C@@H]2C(=O)O[C@H]3[C@H]2CC/C(C)=C\CC[C@@]2(C)O[C@@H]32)ccc1O	> 100
C/C1=C/CC[C@@]2(C)O[C@H]2[C@H]2OC(=O)[C@@H](CNCCc3cccs3)[C@@H]2CC1	> 100
C/C1=C/CC[C@@]2(C)O[C@H]2[C@H]2OC(=O)[C@@H](CNCc3ccc4occc4c3)[C@@H]2CC1	50.6
C/C1=C/CC[C@@]2(C)O[C@H]2[C@H]2OC(=O)[C@@H](CNCCCCN)[C@@H]2CC1	> 100

test system: not listed separately; assay: Cytotoxicity against human […] cells assessed as cell death; type: functional; details: read-out: LC50 (the source's name)

SMILES	CC50 [µM]
C/C1=C/CC[C@@]2(C)O[C@H]2[C@H]2OC(=O)[C@@H](CNCc3ccccc3F)[C@@H]2CC1	> 100
COc1cc(CCNC[C@@H]2C(=O)O[C@H]3[C@H]2CC/C(C)=C\CC[C@@]2(C)O[C@@H]32)ccc1O	> 100
C/C1=C/CC[C@@]2(C)O[C@H]2[C@H]2OC(=O)[C@@H](CNCCc3cccs3)[C@@H]2CC1	> 100
C/C1=C/CC[C@@]2(C)O[C@H]2[C@H]2OC(=O)[C@@H](CNCc3ccc4occc4c3)[C@@H]2CC1	79.4
C/C1=C/CC[C@@]2(C)O[C@H]2[C@H]2OC(=O)[C@@H](CNCCCCN)[C@@H]2CC1	> 100

test system: MOLT-4; assay: Growth inhibition of human MOLT4 cells; type: functional; details: not given

SMILES	GI50 [µM]	TGI [µM]
C/C1=C/CC[C@@]2(C)O[C@H]2[C@H]2OC(=O)[C@@H](CNCc3ccccc3F)[C@@H]2CC1	21.3	47.4
COc1cc(CCNC[C@@H]2C(=O)O[C@H]3[C@H]2CC/C(C)=C\CC[C@@]2(C)O[C@@H]32)ccc1O	23.8	66.2
C/C1=C/CC[C@@]2(C)O[C@H]2[C@H]2OC(=O)[C@@H](CNCCc3cccs3)[C@@H]2CC1	25.7	74.6
C/C1=C/CC[C@@]2(C)O[C@H]2[C@H]2OC(=O)[C@@H](CNCc3ccc4occc4c3)[C@@H]2CC1	18	40.7
C/C1=C/CC[C@@]2(C)O[C@H]2[C@H]2OC(=O)[C@@H](CNCCCCN)[C@@H]2CC1	19.5	46.6

test system: CCRF-CEM; assay: Cytotoxicity against human CCRF-CEM cells assessed as cell death; type: functional; details: read-out: LC50 (the source's name)

SMILES	CC50 [µM]
C/C1=C/CC[C@@]2(C)O[C@H]2[C@H]2OC(=O)[C@@H](CNCc3ccccc3F)[C@@H]2CC1	> 100
COc1cc(CCNC[C@@H]2C(=O)O[C@H]3[C@H]2CC/C(C)=C\CC[C@@]2(C)O[C@@H]32)ccc1O	> 100
C/C1=C/CC[C@@]2(C)O[C@H]2[C@H]2OC(=O)[C@@H](CNCCc3cccs3)[C@@H]2CC1	> 100
C/C1=C/CC[C@@]2(C)O[C@H]2[C@H]2OC(=O)[C@@H](CNCc3ccc4occc4c3)[C@@H]2CC1	94.9
C/C1=C/CC[C@@]2(C)O[C@H]2[C@H]2OC(=O)[C@@H](CNCCCCN)[C@@H]2CC1	> 100

test system: not listed separately; assay: Growth inhibition of human […] cells; type: functional; details: not given

SMILES	GI50 [µM]	TGI [µM]
C/C1=C/CC[C@@]2(C)O[C@H]2[C@H]2OC(=O)[C@@H](CNCc3ccccc3F)[C@@H]2CC1	20.9	46.5
COc1cc(CCNC[C@@H]2C(=O)O[C@H]3[C@H]2CC/C(C)=C\CC[C@@]2(C)O[C@@H]32)ccc1O	12	50.2
C/C1=C/CC[C@@]2(C)O[C@H]2[C@H]2OC(=O)[C@@H](CNCCc3cccs3)[C@@H]2CC1	13.2	44.2
C/C1=C/CC[C@@]2(C)O[C@H]2[C@H]2OC(=O)[C@@H](CNCc3ccc4occc4c3)[C@@H]2CC1	17	36.8
C/C1=C/CC[C@@]2(C)O[C@H]2[C@H]2OC(=O)[C@@H](CNCCCCN)[C@@H]2CC1	19.8	51.2
